Results on 36 compounds are retold here after US6355658B1, “Coumarin derivatives, methods of preparation and application as medicines” (Centre National de la Recherche Scientifique, priority 1997, dated 2002).

The target of one series is T1, human leukocyte elastase (Homo sapiens, UniProt P08246).
T1 sequence (P08246 30-247 limits assumed): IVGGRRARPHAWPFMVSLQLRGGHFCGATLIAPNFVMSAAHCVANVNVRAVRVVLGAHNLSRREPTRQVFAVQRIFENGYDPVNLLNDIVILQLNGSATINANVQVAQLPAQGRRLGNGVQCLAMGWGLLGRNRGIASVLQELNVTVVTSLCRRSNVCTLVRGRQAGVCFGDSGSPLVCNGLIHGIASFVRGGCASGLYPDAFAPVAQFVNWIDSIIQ
Description: Inactivation kinetics of human leukocyte elastase (chromogenic substrate MeOSuc-Ala2-Pro-Val-pNA). The following applies: TABLE 5, phenyl esters; 25° C., pH 8.0; inactivation phase; N.I. = non-inactivator; read-out: Ki/KI or kobs/[I], HLE. The class given is biochemical. As to the method:
(§1) The inactivating or inhibitory properties of the coumarin derivatives were tested with respect to a certain number of enzymes: human leukocyte elastase, bovine α-chymotrypsin, human thrombin and bovine trypsin. The kinetic measurements were taken at 25° C. in the following buffers: 0.1 M Hepes, 0.5 M NaCl, 0.01% Tween 80, pH 8.0 (human leukocyte elastase); 0.025 M NaH2PO4, 0.05 M KCl, pH 7.5 (α-chymotrypsin); 0.01 M Tris, 0.01 M Hepes, 0.1 M NaCl, 0.1% PEG-6000, pH 7.5 (human thrombin); 0.1 M Tris, 0.01 M CaCl2, pH 7.5 (bovine trypsin). The chromogenic substrates used to determine the activity of the enzymes are: MeOSuc-Ala2-Pro-Val-pNA (human leukocyte elastase); Suc-Ala2-Pro-Phe-pNA (α-chymotrypsin); H-D-Phe-Pip-Arg-pNA (human thrombin); N-benzoyl-Arg-pNA (bovine trypsin) (pNA: para-nitroaniline).
(§2) The interaction of a suicide substrate with a serine protease corresponds to the minimum reaction scheme described in equation 1 in which E represents the enzyme, I represents the inhibitor, E-I represents the acyl-enzyme and E-I′ represents the inactivated enzyme [Silverman R. B., 1988, “Mechanism-based enzyme inactivation: chemistry and enzymology”, volume 1 CRC Press, Boca Raton, Fla.]: [drawing 76]
(§3) When k4 is small compared to k3, equation 1 can be simplified (equation 2, [Daniels et al., 1983, J. Biol. Chem., 258: 15046-15053]): [drawing 77]
(§4) Considering the first instants of the reaction, the system reduces to a simplified equation of the form of equation 2.
(§5) The kinetic constants characterizing the inactivation of the enzymes with the coumarin derivatives were determined using either the conventional sampling method (or batchwise method) or a method placing the inhibitor and the substrate in competition (or continuous method); these methods are described by Pochet et al. [Pochet et al., 1996, J. Med. Chem., 39: 2579-2585].
(§6) The inactivation of serine proteaaes with the coumarin derivatives is thus characterized by the following constants (see Eq. 2):
(§7) KI: apparent dissociation constant of an enzyme-inhibitor complex located upstream of ki
(§8) ki: first-order rate constant for inactivation at infinite inhibitor concentration
(§9) ki/KI: index of the overall inactivating efficacy of the inhibitor.
As for `Cc1ccc2oc(=O)c(C(=O)Oc3cc(Cl)ccc3Cl)cc2c1` [Ib3, 2,5-dichlorophenyl 6-methyl-2-oxo-2H-1-benzopyran-3-carboxylate], the kinact/KI was determined as 3000 M⁻¹ s⁻¹.

The next series addresses T2, human thrombin (Homo sapiens, UniProt P00734).
T2 construct: human thrombin
The series is described as follows: Inactivation kinetics of human thrombin (chromogenic substrate H-D-Phe-Pip-Arg-pNA). The class given is biochemical. Particulars: TABLE 5, phenyl esters; 25° C., pH 7.5; inactivation phase; N.I. = non-inactivator. As to the method: as §1, §2, §3, §4, §5, §6, §7, §8, §9
For `O=C(Oc1cc(F)ccc1F)c1cc2ccccc2oc1=O` [Ia5, 2,5-difluorophenyl 2-oxo-2H-1-benzopyran-3-carboxylate], the “Ki/KI or kobs/[I], Thrombin” value is reported as “N.I”.

Tested on in the next series: not given
Experiment: not given
Settings: not given
With `O=C(Oc1cc([N+](=O)[O-])ccc1[N+](=O)[O-])c1cc2ccccc2oc1=O`, the melting point was in the range of 223 to 225 °C. Compound `Cc1ccc2oc(=O)c(C(=O)Oc3cc([N+](=O)[O-])ccc3[N+](=O)[O-])cc2c1` had a melting point of 225 to 229 °C. For `O=C(Oc1cc([N+](=O)[O-])ccc1[N+](=O)[O-])c1cc2cc(CCl)ccc2oc1=O`, the melting point lay in the range of 153 to 157 °C. `CC(=O)OCc1ccc2oc(=O)c(C(=O)Oc3cc([N+](=O)[O-])ccc3[N+](=O)[O-])cc2c1` returned a melting point of 162 to 164 °C. On the same count and under the same terms, in the case of `O=C(Nc1cccnc1)c1cc2cc(CCl)ccc2oc1=O` [II1, N-(3-pyridyl)-6-chloromethyl-2-oxo-2H-1-benzopyran-3-carboxamide] it was 270 °C (dec.); in that of `O=C(Nc1cccnc1Cl)c1cc2cc(CCl)ccc2oc1=O` [II2, N-(2-chloro-3-pyridyl)-6-chloromethyl-2-oxo-2H-1-benzopyran-3-carboxamide], 211 °C (dec.); in that of `COc1ccc(NC(=O)c2cc3cc(CCl)ccc3oc2=O)cn1` [II3, N-(6-methoxy-3-pyridyl)-6-chloromethyl-2-oxo-2H-1-benzopyran-3-carboxamide], 225 °C (dec.). `O=C(NSc1ncccc1[N+](=O)[O-])c1cc2cc(CCl)ccc2oc1=O` [IV1, N-[(3-nitro-2-pyridyl)sulfanyl]-6-chloromethyl-2-oxo-2H-1-benzopyran-3-carboxamide]: the melting point lay within 252 to 254 °C. In turn, `O=C(Oc1cc(F)ccc1F)c1cc2ccccc2oc1=O` [Ia5, 2,5-difluorophenyl 2-oxo-2H-1-benzopyran-3-carboxylate] returned a melting point of 134 to 137 °C.

The compound `O=C(Oc1cc(F)ccc1Br)c1cc2ccccc2oc1=O` [Ia6, 2-bromo-5-fluorophenyl 2-oxo-2H-1-benzopyran-3-carboxylate] gave a melting point of 173 to 175 °C. The same measure, in the same setting: the value for `O=C(Oc1cc(F)ccc1[N+](=O)[O-])c1cc2ccccc2oc1=O` [Ia7, 5-fluoro-2-nitrophenyl 2-oxo-2H-1-benzopyran-3-carboxylate] was 219 to 223 °C; that for `O=C(Oc1cccc2cnccc12)c1cc2ccccc2oc1=O` [Ia9, 5-isoquinolyl 2-oxo-2H-1-benzopyran-3-carboxylate] was 190 to 193 °C; that for `O=C(Oc1cc2ccccc2cn1)c1cc2ccccc2oc1=O` [Ia10, 3-isoquinolyl 2-oxo-2H-1-benzopyran-3-carboxylate] was 160 to 163 °C. Consider `Cc1ccc2oc(=O)c(C(=O)Oc3cc(Cl)ccc3Cl)cc2c1` [Ib3, 2,5-dichlorophenyl 6-methyl-2-oxo-2H-1-benzopyran-3-carboxylate], for which the melting point fell in the range of 175 to 179 °C.

Regarding `Cc1ccc2oc(=O)c(C(=O)Oc3cc(F)ccc3F)cc2c1` [Ib4, 2,5-difluorophenyl 6-methyl-2-oxo-2H-1-benzopyran-3-carboxylate], the melting point is 155 to 159 °C. As for `Cc1ccc2oc(=O)c(C(=O)Oc3cc(F)ccc3Br)cc2c1` [Ib5, 2-bromo-5-fluorophenyl 6-methyl-2-oxo-2H-1-benzopyran-3-carboxylate], the melting point lay in the range of 187 to 190 °C. On the same count and under the same terms, the value for `Cc1ccc2oc(=O)c(C(=O)Oc3cc(F)ccc3[N+](=O)[O-])cc2c1` [Ib6, 5-fluoro-2-nitrophenyl 6-methyl-2-oxo-2H-1-benzopyran-3-carboxylate] was 224 to 226 °C; that for `Cc1ccc2oc(=O)c(C(=O)Oc3cccc4cnccc34)cc2c1` [Ib8, 5-isoquinolyl 6-methyl-2-oxo-2H-1-benzopyran-3-carboxylate] was 188 to 190 °C; that for `O=C(OC1CCCCC1)c1cc2cc(CCl)ccc2oc1=O` [Ic′1, cyclohexyl 6-chloromethyl-2-oxo-2H-1-benzopyran-3-carboxylate] was 185 to 186 °C. The same measure, in the same setting: the value for `O=C(OC1CCCCCC1)c1cc2cc(CCl)ccc2oc1=O` [Ic′2, cycloheptyl 6-chloromethyl-2-oxo-2H-1-benzopyran-3-carboxylate] was 171 to 174 °C; that for `O=C(OC1CCCCCCC1)c1cc2cc(CCl)ccc2oc1=O` [Ic′3, cyclooctyl 6-chloromethyl-2-oxo-2H-1-benzopyran-3-carboxylate] was 169 to 170 °C. In turn, `O=C(OC1CCCCCCCCCCC1)c1cc2cc(CCl)ccc2oc1=O` [Ic′4, cyclododecyl 6-chloromethyl-2-oxo-2H-1-benzopyran-3-carboxylate] showed a melting point of 164 to 167 °C. In the case of `Cc1cncc(OC(=O)c2cc3cc(CCl)ccc3oc2=O)c1` [Ic′″2, 5-methyl-3-pyridyl 6-chloromethyl-2-oxo-2H-1-benzopyran-3-carboxylate], the melting point is 211 °C (dec.).

Take `Cc1ccc(OC(=O)c2cc3cc(CCl)ccc3oc2=O)cn1` [Ic′″3, 6-methyl-3-pyridyl 6-chloromethyl-2-oxo-2H-1-benzopyran-3-carboxylate]: the melting point is 205 to 208 °C. Compound `O=C(Oc1cccnc1Cl)c1cc2cc(CCl)ccc2oc1=O` [Ic′″4, 2-chloro-3-pyridyl 6-chloromethyl-2-oxo-2H-1-benzopyran-3-carboxylate] had a melting point of 198 to 200 °C. `O=C(Oc1cccnc1Br)c1cc2cc(CCl)ccc2oc1=O` [Ic′″6, 2-bromo-3-pyridyl 6-chloromethyl-2-oxo-2H-1-benzopyran-3-carboxylate] displayed a melting point of 197 to 199 °C. Regarding `O=C(Oc1cccnc1[N+](=O)[O-])c1cc2cc(CCl)ccc2oc1=O` [Ic′″7, 2-nitro-3-pyridyl 6-chloromethyl-2-oxo-2H-1-benzopyran-3-carboxylate], the melting point fell in the range of 190 to 193 °C.

In turn, `Cc1ccc(OC(=O)c2cc3cc(CCl)ccc3oc2=O)c([N+](=O)[O-])n1` [Ic′″8, 6-methyl-2-nitro-3-pyridyl 6-chloromethyl-2-oxo-2H-1-benzopyran-3-carboxylate] showed a melting point of 203 to 208 °C. On to `O=C(Oc1cc(F)ccc1Br)c1cc2cc(CCl)ccc2oc1=O` [Ic″9, 2-bromo-5-fluorophenyl 6-chloromethyl-2-oxo-2H-1-benzopyran-3-carboxylate], for which the melting point lay within 203 to 205 °C. Still for that read-out and setting: in the case of `O=C(Oc1cc(F)ccc1[N+](=O)[O-])c1cc2cc(CCl)ccc2oc1=O` [Ic″10, 5-fluoro-2-nitrophenyl 6-chloromethyl-2-oxo-2H-1-benzopyran-3-carboxylate] it was 205 to 208 °C; in that of `O=C(Oc1cccc2cccnc12)c1cc2cc(CCl)ccc2oc1=O` [Ic″″1, 8-quinolyl 6-chloromethyl-2-oxo-2H-1-benzopyran-3-carboxylate], 127 °C (dec.); in that of `O=C(Oc1ccc2ncccc2c1)c1cc2cc(CCl)ccc2oc1=O` [Ic″″2, 6-quinolyl 6-chloromethyl-2-oxo-2H-1-benzopyran-3-carboxylate], 205 to 208 °C. Still for that read-out and setting: in the case of `CCC(=O)OCc1ccc2oc(=O)c(C(=O)Oc3ccccc3)cc2c1` [Id5, phenyl 6-propionyloxymethyl-2-oxo-2H-1-benzopyran-3-carboxylate] it was 186 to 187 °C; in that of `CC(=O)OCc1ccc2oc(=O)c(C(=O)Oc3cc(Cl)cc(Cl)c3)cc2c1` [Id13, 3,5-dichlorophenyl 6-acetoxymethyl-2-oxo-2H-1-benzopyran-3-carboxylate], 146 to 150 °C.

Compound `CC(=O)OCc1ccc2oc(=O)c(C(=O)Oc3cc(F)ccc3Br)cc2c1` [Id14, 2-bromo-5-fluorophenyl 6-acetoxymethyl-2-oxo-2H-1-benzopyran-3-carboxylate] gave a melting point of 148 to 150 °C. In turn, `CC(=O)OCc1ccc2oc(=O)c(C(=O)Oc3cc(F)ccc3[N+](=O)[O-])cc2c1` [Id15, 5-fluoro-2-nitrophenyl 6-acetoxymethyl-2-oxo-2H-1-benzopyran-3-carboxylate] came in with a melting point of 157 to 161 °C.
